In brackets after ≈: the same amount, converted by molar mass. Several values for one entry are separate records, joined by “and”; a condition that tells them apart may be missing. Equal entries are not always repeated.
Experiments:
[1] = test system: C. parapsilosis Y-1761; experiment: microbe, parasite or virus in culture; assay type: cell-based; details: Lodderomyces parapsilosis, Y1761, 24-h incubation, mean of 3 replicates from 2 independent experiments, read-out: Minimum Inhibitory Concentration (MIC)
Description: (§1) Strains were obtained from American Type Culture Collection (ATCC, Manassas, VA) or the clinical isolate collection at Trideum Biosciences (Frederick, MD, USA). Bioluminescence strains of P. aeruginosa 19660, transfected with the Xen5 luciferase gene, and S. aureus ATCC® 49525™ (Wright), transfected with the Xen36 luciferase gene, were obtained from Perkin Elmer (Hopkinton, MA).
(§2) A single colony was aseptically picked from an agar overlay and released in 25–30 mL of pre-warmed trypticase soy broth in a culture flask. Each culture was incubated overnight in a 37°C incubator. […] Pathogen growth was measured by absorbance at 600 nm. Four replicas were included for each test agent concentration. […]

[2] = test system: C. parapsilosis Y-1763; experiment: microbe, parasite or virus in culture; assay type: cell-based; details: Lodderomyces parapsilosis, Y1763, 24-h incubation, mean of 3 replicates from 2 independent experiments, read-out: Minimum Inhibitory Concentration (MIC)
Description: as §1, §2

[3] = test system: MRSA 6381; experiment: microbe, parasite or virus in culture; assay type: cell-based, Staphylococcus aureus; details: Staphylococcus aureus, MRSA, 24 h, read-out: Minimum Inhibitory Concentration (MIC)
Description: as §1, §2

[4] = test system: S. aureus 6061; experiment: microbe, parasite or virus in culture; assay type: cell-based, Staphylococcus aureus; details: Staphylococcus aureus, 6061, 24 h, read-out: Minimum Inhibitory Concentration (MIC)
Description: as §1, §2

[5] = test system: MRSA ATCC 33592; experiment: microbe, parasite or virus in culture; assay type: cell-based, Staphylococcus aureus; details: Staphylococcus aureus, 24 h, read-out: Minimum Inhibitory Concentration (MIC)
Description: as §1, §2

[6] = test system: MRSA 6313; experiment: microbe, parasite or virus in culture; assay type: cell-based, Staphylococcus aureus; details: Staphylococcus aureus, MRSA, 24 h, read-out: Minimum Inhibitory Concentration (MIC)
Description: as §1, §2

[7] = test system: S. aureus B-767; experiment: microbe, parasite or virus in culture; assay type: cell-based, Staphylococcus aureus; details: Staphylococcus aureus, B767, 24 h, read-out: Minimum Inhibitory Concentration (MIC)
Description: as §1, §2

[8] = test system: bioluminescent S. aureus 49525; experiment: Bioluminescence time-kill assay; assay type: cell-based, Staphylococcus aureus; details: antibiotics after 30 min incubation, triplicates, two independent experiments
Description: as §1
(§3) Non-invasive real-time evaluation of viability, mammalian, and bacterial cells, was performed using bioluminescent human keratinocytes (HaCaT, AddexBio, San Diego, CA) and murine L929 fibroblast cells (ATCC, Manassas, VA). The bioluminescent variants were constructed by transfection with a luciferase gene (RediFect Red-Fluc-Puromycin, Catalog #CL596002) (Hamblin et al., [2003]). […] Each concentration was performed in triplicate. Bioluminescence imaging was performed at pre-specified times (0, 15, and 30 min and 1, 3, 5, 8, and 24 h) and compared to concurrently run vehicle-controls. The 96-well plate was positioned on the stage (12.5-cm field of view) within the in vivo Imaging System (IVIS) imaging system (Caliper Life Sciences, Inc., Hopkinton, MA, USA), with an open emission filter, binning of 4, and f-stop 1, and a 1-min exposure time. The resultant photons emitted from the live cells were quantified using Living Image® software (version 4.3, Caliper Life Sciences, Inc.). […]

[9] = test system: A. baumannii 6838; experiment: microbe, parasite or virus in culture; assay type: cell-based, Acinetobacter baumannii; details: Acinetobacter baumannii, 6838, 24 h, read-out: Minimum Inhibitory Concentration (MIC)
Description: as §1, §2

[10] = test system: A. baumannii ATCC 17978; experiment: microbe, parasite or virus in culture; assay type: cell-based, Acinetobacter baumannii; details: Acinetobacter baumannii, ATCC17978, 24 h, read-out: Minimum Inhibitory Concentration (MIC)
Description: as §1, §2

[11] = test system: A. baumannii 6043; experiment: microbe, parasite or virus in culture; assay type: cell-based, Acinetobacter baumannii; details: Acinetobacter baumannii, 6043, 24 h, read-out: Minimum Inhibitory Concentration (MIC)
Description: as §1, §2

[12] = test system: S. epidermis ATCC 51625; experiment: microbe, parasite or virus in culture; assay type: cell-based, S. epidermidis; details: Staphylococcus epidermidis, ATCC51625, 24 h, read-out: Minimum Inhibitory Concentration (MIC)
Description: as §1, §2

[13] = test system: E. cloacae 6054; experiment: microbe, parasite or virus in culture; assay type: cell-based; details: Enterobacter cloacae, 6054, 24 h, read-out: Minimum Inhibitory Concentration (MIC)
Description: as §1, §2

[14] = test system: E. cloacae 6053; experiment: microbe, parasite or virus in culture; assay type: cell-based; details: Enterobacter cloacae, 6053, 24 h, read-out: Minimum Inhibitory Concentration (MIC)
Description: as §1, §2

[15] = test system: K. pneumonia 6069; experiment: microbe, parasite or virus in culture; assay type: cell-based, Klebsiella pneumoniae; details: Klebsiella pneumoniae, 6069, 24 h, read-out: Minimum Inhibitory Concentration (MIC)
Description: as §1, §2

[16] = test system: K. pneumonia ATCC 10031; experiment: microbe, parasite or virus in culture; assay type: cell-based, Klebsiella pneumoniae; details: Klebsiella pneumoniae, ATCC10031, 24 h, read-out: Minimum Inhibitory Concentration (MIC)
Description: as §1, §2

[17] = test system: K. pneumonia 6066; experiment: microbe, parasite or virus in culture; assay type: cell-based, Klebsiella pneumoniae; details: Klebsiella pneumoniae, 6066, 24 h, read-out: Minimum Inhibitory Concentration (MIC)
Description: as §1, §2

[18] = test system: bioluminescent P. aeruginosa 19660; experiment: Bioluminescence time-kill assay; assay type: cell-based, Pseudomonas aeruginosa; details: antibiotics after 30 min incubation, triplicates, two independent experiments
Description: as §1, §3

[19] = test system: P. aeruginosa ATCC 27853; experiment: microbe, parasite or virus in culture; assay type: cell-based, Pseudomonas aeruginosa; details: Pseudomonas aeruginosa, ATCC27853, 24 h, read-out: Minimum Inhibitory Concentration (MIC)
Description: as §1, §2

[20] = test system: P. aeruginosa 6186; experiment: microbe, parasite or virus in culture; assay type: cell-based, Pseudomonas aeruginosa; details: Pseudomonas aeruginosa, 6186, 24 h, read-out: Minimum Inhibitory Concentration (MIC)
Description: as §1, §2

[21] = test system: P. aeruginosa ATCC 19660; experiment: microbe, parasite or virus in culture; assay type: cell-based, Pseudomonas aeruginosa; details: Pseudomonas aeruginosa, ATCC19660, 24 h, read-out: Minimum Inhibitory Concentration (MIC)
Description: as §1, §2

[22] = test system: mature (120 h) MRSA ATCC 1556 biofilm; assay type: cell-based, Staphylococcus aureus; details: ATCC 1556, 120 h
[23] = test system: 6 hr MRSA ATCC 1556 biofilm; assay type: cell-based, Staphylococcus aureus; details: ATCC 1556, 6 h
[24] = test system: preformed C. albicans biofilm; details: ref Woodburn et al., under review; cited from earlier work

With `C[C@@H]1[C@H](O)[C@@H](C)/C=C/C=C/C=C/C=C/C=C/C=C/C=C/[C@H](O[C@@H]2O[C@H](C)[C@@H](O)[C@H](N)[C@@H]2O)C[C@@H]2O[C@](O)(C[C@@H](O)C[C@@H](O)[C@H](O)CC[C@@H](O)C[C@@H](O)CC(=O)O[C@H]1C)C[C@H](O)[C@H]2C(=O)O` [Amphotericin b, amphotericin B] the MIC [1] was 1 µM and 1.08 µg/mL and the MIC [2] was 1 µM and 1.08 µg/mL.
`CN[C@H](CC(C)C)C(=O)N[C@H]1C(=O)N[C@@H](CC(N)=O)C(=O)N[C@H]2C(=O)N[C@H]3C(=O)N[C@H](C(=O)N[C@H](C(=O)O)c4cc(O)cc(O)c4-c4cc3ccc4O)[C@H](O)c3ccc(c(Cl)c3)Oc3cc2cc(c3O[C@@H]2O[C@H](CO)[C@@H](O)[C@H](O)[C@H]2O[C@H]2C[C@](C)(N)[C@H](O)[C@H](C)O2)Oc2ccc(cc2Cl)[C@H]1O` [Vancomycin, vancomycin] gave an MIC [3] of 1.4 µM (≈ 2.03 µg/mL), an MIC [4] of 2.1 µM (≈ 3.04 µg/mL) and an MIC [5] of 1.4 µM (≈ 2.03 µg/mL). The MIC [6] was 1.4 µM (≈ 2.03 µg/mL), the MIC [7] was > 88.3 µM and the “Bactericidal activity in time-kill assay” value [8] was “no trace of antibacterial activity”. The MIC [9] was > 88.3 µM, the MIC [10] was > 88.3 µM and the MIC [11] was > 88.3 µM. The MIC [12] was 2.1 µM (≈ 3.04 µg/mL), the MIC [13] was > 88.3 µM and the MIC [14] was > 88.3 µM. The MIC [15] was > 88.3 µM, the MIC [16] was > 88.3 µM and the MIC [17] was > 88.3 µM. The “Bactericidal activity in time-kill assay” value [18] was “no trace of antibacterial activity”, the MIC [19] was > 88.3 µM and the MIC [20] was > 88.3 µM. The MIC [21] was > 88.3 µM.
In the case of `CCCCCCCCCC(=O)N[C@@H](Cc1c[nH]c2ccccc12)C(=O)N[C@H](CC(N)=O)C(=O)N[C@@H](CC(=O)O)C(=O)N[C@@H]1C(=O)NCC(=O)N[C@@H](CCCN)C(=O)N[C@@H](CC(=O)O)C(=O)N[C@H](C)C(=O)N[C@@H](CC(=O)O)C(=O)NCC(=O)N[C@H](CO)C(=O)N[C@@H]([C@H](C)CC(=O)O)C(=O)N[C@@H](CC(=O)c2ccccc2N)C(=O)O[C@@H]1C` [daptomycin], the “EC90 (concentration to reduce biofilm by 90%)” value [22] is reported as ~ 100 μg/mL and the “EC90, biofilm CFU” value [23] is reported as > 100 µg/mL.
For `OC(Cn1cncn1)(Cn1cncn1)c1ccc(F)cc1F` [fluconazole], the “Killing fungi in preformed C. albicans biofilm and preventing biofilm formation” value [24] is given as “markedly ineffective”.

Reference: publication PMC6667648 (Frontiers in Microbiology, 2019)
